Test results: patent US8377948B2, “Antitumor agents and methods of their use” (The Ohio State University Research Foundation, priority 2004, dated 2013)
pIC50: −log10 of the molar value.

Legend:
serum proteins = settings: cited from earlier work
immunoprecipitated Akt = immunoprecipitated Akt (Homo sapiens, UniProt P31749); experiment: Kinase activity of immunoprecipitated Akt; assay type: biochemical
PC-3 cells [1] = experiment: MTT cell viability assay, PC-3 cells in 10% FBS medium; assay type: cell-based, human; settings: RPMI 1640 with 10% FBS, 48 h, means ± S.D. (n = 6)
Procedure: PC-3 (p53−/−) human androgen-nonresponsive prostate cancer cells were purchased from the American Type Tissue Collection (Manassas, Va.). Cells were cultured in RPMI 1640 medium (Gibco, Grand Island, N.Y.) supplemented with 10% fetal bovine serum (FBS; Gibco) at 37° C. in a humidified incubator containing 5% CO2.
(§1) Effect of the test agent on cell viability was assessed by the MTT {[3-(4,5-dimethylthiazol-2-yl)-2,5-diphenyl-2H-tetrazolium bromide]} assay in 96-well, flat-bottomed plates, in which 8,000 PC-3 or DU-145 cells/well were seeded. Cells were exposed to the test agent at the indicated concentrations, in six replicates, in 10% FBS-supplemented-RPMI-1640 medium at 37° C. in 5% CO2 for 48 hr. The medium was removed and replaced by 150 μL of 0.5 mg/mL of MTT in RPMI-1640 medium, and cells were incubated in the CO2 incubator at 37° C. for 2 h. Supernatants were removed from the wells, and the reduced MTT dye was solubilized with 200 μL/well DMSO. Absorbance was determined on a plate reader at 570 nm.
All compounds were evaluated for their ability to induce apoptotic death in human androgen-independent PC-3 prostate cancer in RPMI 1640 medium containing 10% fetal bovine serum (FBS). For representative compounds tested in DU-145 and LNCaP prostate cancer cells, the IC50 values for inhibiting cell proliferation were similar in these three cell lines irrespective of differences in androgen sensitivity, PTEN mutation, the functional status of p53 and Rb, and other biomarkers.

Akt = experiment: Western blot analysis of Akt phosphorylation in PC-3 cells; assay type: cell-based, human; settings: Western blot
From the text: (§2) (A) Left panel, Time- and dose-dependent effect of doxazosin on the cell viability of PC-3 cells in 1% FBS-supplemented RPMI 1640 medium. Values obtained from six replicates were plotted at each time point at the indicated concentrations of doxazosin. Right panel, induction of poly(ADP-ribose) polymerase (PARP) cleavage by doxazosin at the indicated concentrations after 48-h treatment. PARP proteolysis to the apoptosis-specific 85-kd fragment was monitored by Western blotting. Although there was no substantial accumulation of the 85-kd fragment, significant decrease in the level of native protein was noted. (B) Dose- and time-dependent (upper and lower panels, respectively) effects of doxazosin on Akt phosphorylation. (C) dose-dependent effect of doxazosin on ERK phosphorylation. PC-3 cells were treated with doxazosin at the indicated concentrations for 24 h or at 25 μM for the indicated times and lysed, and proteins in the resulting supernatants were resolved on SDS-PAGE and subjected to Western blot analysis. The phosphorylation status of Akt and ERKs was determined by immunoblotting with the respective phospho-specific antibodies. Unphosphorylated Akt and ERKs, as immunostained by anti-Akt and anti-ERK antibodies, were used as internal standards for the comparison of phospho-Akt and phospho-ERK levels among samples of different preparations. The blots are representative of three independent experiments.
(§3) (B) Western blot analysis of […] proteolysis and Akt dephosphorylation in PC-3 cells treated with the indicated concentrations of 33 for 48 h. (C) Effects of compound 44 on Akt phosphorylation in PC-3 cells treated with the indicated concentrations for 48 h.
PC-3 cells (1.5×106) treated with the test agent at the indicated concentrations in RPMI 1640 medium for 24 h were collected and sonicated. Protein concentrations of the lysates were determined by using a Bradford protein assay kit (Bio-Rad, Hercules, Calif.); equivalent amounts of proteins from each lysate were resolved in 10% SDS-polyacrylamide gel and then transferred onto Immobilon-nitrocellulose membranes (Millipore, Bellerica, MA) in a semidry transfer cell. The transblotted membrane was washed twice with Tris-buffered saline (TBS) containing 0.1% Tween 20 (TBST). After blocking with TBST containing 5% nonfat milk for 40 min, the membrane was incubated with the primary antibody (1:1000 dilution) in TBST-1% nonfat milk at 4° C. overnight. After treatment with the primary antibody, the membrane was washed three times with TBST for a total of 15 min, followed by goat anti-rabbit or anti-mouse IgG-horseradish peroxidase conjugates (diluted 1:3000) for 1 h at room temperature and wash three times with TBST for a total of 1 h. The immunoblots were visualized by enhanced chemiluminescence.

PC-3 cells [2] = experiment: Cell viability / apoptotic death of PC-3 cells in 1% FBS-supplemented RPMI 1640 medium; assay type: cell-based, human
From the text: as §2, §3, §1
Doxazosin induced apoptosis, in part, by facilitating Akt dephosphorylation. […] The potency of doxazosin in inducing apoptosis, however, was moderate.

[3] = test system: PC-3 cells overexpressing Akt^T308D/S473D; experiment: Viability of PC-3 cells transiently transfected with constitutively active Akt; assay type: cell-based, human; settings: 25 μM, 1% FBS-supplemented medium, 24 h, versus empty pcDNA vector
Procedure: (A) Expression of Akt^T308D/S473D in PC-3 transient transfection. Western blot analysis used antibodies against Akt, and the HA tag. B) Viability of PC-3 cells overexpressing Akt^T308D/S473D vis-à-vis cells transfected with empty pcDNA vector (mock) in the presence of 25 μM doxazosin in 1% FBS-supplemented medium for 24 h. Values are means±S.D. (n=3).
The constitutively active Akt construct HA-PKB-T308D/S473D was kindly provided by Dr. Brain Hemmings (Friedrich Miescher Institute, Basel, Switzerland). PC-3 cells were seeded into T-75 flasks (1.5×10^6/flask). Aliquots containing 3 μg of each plasmid or a control pcDNA3.1(+) vector in 750 μl of Opti-MEM medium (Invitrogen-Life Technologies, Inc.,) was incubated with 9 μl of the FuGene 6 reagent (Roche Diagnostics Corp., Indianapolis, Ind.) for 15 min. Each flask was washed with Opti-MEM medium and then received the plasmid-FuGene 6 mixture and 4 ml of Opti-MEM medium. The flask was placed in a CO2 incubator for 4 h, and the transfection medium was replaced with 10% FBS-supplemented RPMI 1640. […]
To examine the causal relationship between Akt deactivation and doxazosin-mediated apoptosis, the protective effect of the transient transfection of constitutively active Akt, Akt^T308D/S473D (ref. 14), on drug-induced PC-3 cell death, was assessed. […]

ERKs = experiment: Western blot analysis of ERK phosphorylation in PC-3 cells; assay type: cell-based, human; settings: even at 50 μM
From the text: (A) Left panel, Time- and dose-dependent effect of doxazosin on the cell viability of PC-3 cells in 1% FBS-supplemented RPMI 1640 medium. Values obtained from six replicates were plotted at each time point at the indicated concentrations of doxazosin. Right panel, induction of poly(ADP-ribose) polymerase (PARP) cleavage by doxazosin at the indicated concentrations after 48-h treatment. PARP proteolysis to the apoptosis-specific 85-kd fragment was monitored by Western blotting. Although there was no substantial accumulation of the 85-kd fragment, significant decrease in the level of native protein was noted. (B) Dose- and time-dependent (upper and lower panels, respectively) effects of doxazosin on Akt phosphorylation. (C) dose-dependent effect of doxazosin on ERK phosphorylation. […] The phosphorylation status of Akt and ERKs was determined by immunoblotting with the respective phospho-specific antibodies. […]
PC-3 cells (1.5×106) treated with the test agent at the indicated concentrations in RPMI 1640 medium for 24 h were collected and sonicated. Protein concentrations of the lysates were determined by using a Bradford protein assay kit (Bio-Rad, Hercules, Calif.); equivalent amounts of proteins from each lysate were resolved in 10% SDS-polyacrylamide gel and then transferred onto Immobilon-nitrocellulose membranes (Millipore, Bellerica, MA) in a semidry transfer cell. […]

Chain of immunoprecipitated Akt (P31749 whole entry): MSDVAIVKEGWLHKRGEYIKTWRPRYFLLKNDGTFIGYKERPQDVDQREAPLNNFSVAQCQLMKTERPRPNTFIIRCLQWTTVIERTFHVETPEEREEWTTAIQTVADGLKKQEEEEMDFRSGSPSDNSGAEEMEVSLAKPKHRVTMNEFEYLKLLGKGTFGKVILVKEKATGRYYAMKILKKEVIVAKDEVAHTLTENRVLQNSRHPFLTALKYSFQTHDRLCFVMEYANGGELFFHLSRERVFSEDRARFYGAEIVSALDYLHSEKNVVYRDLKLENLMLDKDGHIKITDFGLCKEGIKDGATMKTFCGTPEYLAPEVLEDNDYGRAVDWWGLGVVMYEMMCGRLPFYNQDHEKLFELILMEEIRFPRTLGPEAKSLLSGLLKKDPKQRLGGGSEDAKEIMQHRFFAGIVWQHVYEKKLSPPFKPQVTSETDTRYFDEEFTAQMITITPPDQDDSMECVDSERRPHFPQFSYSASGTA

## COc1cc2nc(N3CCN(C(=O)C4COc5ccccc5O4)CC3)nc(N)c2cc1OC (stereo not drawn) [Doxazosin]
Serum proteins
  binding affinity with serum proteins: high binding affinity
Immunoprecipitated Akt
  inhibitory effect on kinase activity of immunoprecipitated Akt: no inhibitory effects
PC-3 cells [1]
  pIC50: 4.35
Akt
  effect on Akt phosphorylation: Akt dephosphorylation in a dose- and time-dependent manner
PC-3 cells [2]; 1% FBS-supplemented RPMI 1640, 10 μM
  apoptotic death: no appreciable apoptotic death
PC-3 cells [2]; 1% FBS-supplemented RPMI 1640, 25 μM and up
  drug-induced apoptosis: susceptible to the drug-induced apoptosis
PC-3 cells [2]; 1% FBS-supplemented medium, read-out: IC50, apoptosis-inducing potency
  pIC50: 4.70
[3]
  protection by Akt^T308D/S473D against drug-induced apoptotic death: partial, yet significant, protection
ERKs
  effect on phosphorylation status of ERKs: did not affect
